Measured values from US20050239733A1, “Sequence requirements for inhibitory oligonucleotides” (Coley Pharmaceutical GmbH, priority 2003, published 2005).

Tests used:
[1] = biological target: T1, human TLR8 (Homo sapiens, UniProt Q9NR97); assay: Inhibition of R-848-mediated NF-κB-luciferase activation in hTLR8-LUC-293 cells; assay type: cell-based; settings: for inhibitory for TLR8: general statement 'found according to the present invention', conditions not given
T1 construct: expressed in transfected cells
T1 sequence (Q9NR97 27-1041): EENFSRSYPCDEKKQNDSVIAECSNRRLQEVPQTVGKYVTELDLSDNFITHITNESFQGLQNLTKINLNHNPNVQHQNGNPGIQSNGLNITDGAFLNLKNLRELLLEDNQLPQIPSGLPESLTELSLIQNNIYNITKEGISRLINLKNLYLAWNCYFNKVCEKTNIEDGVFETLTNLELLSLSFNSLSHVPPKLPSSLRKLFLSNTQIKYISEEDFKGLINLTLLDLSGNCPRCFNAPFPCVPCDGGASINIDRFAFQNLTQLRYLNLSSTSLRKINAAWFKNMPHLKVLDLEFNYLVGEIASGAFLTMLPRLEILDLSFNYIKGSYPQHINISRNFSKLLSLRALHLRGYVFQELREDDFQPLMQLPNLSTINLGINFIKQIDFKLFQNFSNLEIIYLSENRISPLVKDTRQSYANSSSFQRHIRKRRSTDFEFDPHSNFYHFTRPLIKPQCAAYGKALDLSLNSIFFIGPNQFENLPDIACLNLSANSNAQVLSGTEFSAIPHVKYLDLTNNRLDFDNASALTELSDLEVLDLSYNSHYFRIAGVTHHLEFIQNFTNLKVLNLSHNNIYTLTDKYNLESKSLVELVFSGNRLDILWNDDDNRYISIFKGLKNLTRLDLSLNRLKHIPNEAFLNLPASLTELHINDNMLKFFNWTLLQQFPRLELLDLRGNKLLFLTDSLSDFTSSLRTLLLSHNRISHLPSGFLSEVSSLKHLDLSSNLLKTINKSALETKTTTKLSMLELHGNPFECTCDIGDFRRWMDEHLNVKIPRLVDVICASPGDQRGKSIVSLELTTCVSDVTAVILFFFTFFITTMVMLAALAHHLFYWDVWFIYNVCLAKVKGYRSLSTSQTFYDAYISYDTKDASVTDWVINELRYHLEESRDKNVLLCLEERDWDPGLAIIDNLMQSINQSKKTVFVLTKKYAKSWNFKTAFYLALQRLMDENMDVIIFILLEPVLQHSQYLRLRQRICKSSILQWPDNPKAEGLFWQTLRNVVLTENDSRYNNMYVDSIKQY
Description: The previous examples describe the ability of certain inhibitory ODN to inhibit activation of signal transduction mediated by human Toll-like receptor 9 (hTLR9). […] The assay system involved stimulating hTLR8-LUC-293 cells with the TLR8 ligand, R-848 (Resiquimod; Jurk M et al. (2002) Nat Immunol 3:499) in the presence and absence of ODN and comparing the induction of luciferase activity in the absence of ODN to luciferase activity in the presence of ODN.
Cells were assayed for luciferase activity 16 h later. Results were calculated as fold induction above medium background.
Luciferase activity was assayed after 16 h.
hTLR8-LUC-293 cells were incubated with 50 μM R-848 in the presence of increasing concentrations of the following ODN: ODN 2088, D13GT (whererin D is dSpacer), GTN13, N6GTN7, random 15-mer N15, N13GT, and the dinucleotide GT. Luciferase activity was assayed after 16 h. Luciferase activity of R-848 without any ODN was set to 100% (without correction for medium background, i.e. background activity of medium remained at approx. 17%).
Luciferase activity was assayed after 16 h. Luciferase activity of R-848 without any ODN was set to 100% (without correction for medium background, i.e., background activity of medium remained at approx. 17%).
In yet a further set of experiments hTLR8-LUC-293 cells were incubated with 50 μM R-848 in the presence of increasing amounts of different dinucleotides (GT, ODN 603; TG, ODN 688; GG, ODN 689; GU, ODN 690; UG, ODN 691; AT, ODN 692; and TT, ODN 693). Luciferase was assayed after 16 h. Luciferase activity of R-848 without any ODN was set to 100% and remaining R-848-mediated NF-κB activation in the presence of dinucleotides or ODN 2088 was calculated. Medium background was 17% in this set of experiments.
hTLR-LUC-293 cells (expressing the respective humanTLR7, TLR8, or TLR9) were incubated with constant amounts of TLR-agonist (for hTLR7: 2 μM R-848, for hTLR8: 50 μM R-848, and for hTLR9: 0.156 μM CpG ODN 2006) and increasing amounts of TLR-antagonist. […] To compare data for different TLRs, percent remaining activity of agonist was plotted against the log of molar ratio of antagonist to agonist (e.g., for hTLR8: 50 μM R-848 and 5 μM ODN, the plotted ratio is 10^−1). Used ODN concentrations were: for hTLR7 and hTLR8, 5 μM, 0.5 μM, 0.05 μM, and 0.005 μM, and for hTLR9, 2.5 μM, 0.156 μM, 0.0098 μM and 0.00061 μM.

[2] = biological target: T2, human TLR9 (Homo sapiens, UniProt Q9NR96); assay: Inhibition of CpG ODN 2006-mediated NF-κB-luciferase activation in hTLR9-LUC-293 cells; settings: for Percent 2006 Activity: equimolar 0.156 μM CpG ODN 2006 and inhibitory ODN; for inhibitory for TLR9: general statement 'found according to the present invention', conditions not given; for inhibition of hTLR9 (CpG ODN 2006-mediated luciferase activity), in words: 0.156 μM CpG ODN 2006, increasing ODN, 16 h
T2 sequence (Q9NR96 26-1032): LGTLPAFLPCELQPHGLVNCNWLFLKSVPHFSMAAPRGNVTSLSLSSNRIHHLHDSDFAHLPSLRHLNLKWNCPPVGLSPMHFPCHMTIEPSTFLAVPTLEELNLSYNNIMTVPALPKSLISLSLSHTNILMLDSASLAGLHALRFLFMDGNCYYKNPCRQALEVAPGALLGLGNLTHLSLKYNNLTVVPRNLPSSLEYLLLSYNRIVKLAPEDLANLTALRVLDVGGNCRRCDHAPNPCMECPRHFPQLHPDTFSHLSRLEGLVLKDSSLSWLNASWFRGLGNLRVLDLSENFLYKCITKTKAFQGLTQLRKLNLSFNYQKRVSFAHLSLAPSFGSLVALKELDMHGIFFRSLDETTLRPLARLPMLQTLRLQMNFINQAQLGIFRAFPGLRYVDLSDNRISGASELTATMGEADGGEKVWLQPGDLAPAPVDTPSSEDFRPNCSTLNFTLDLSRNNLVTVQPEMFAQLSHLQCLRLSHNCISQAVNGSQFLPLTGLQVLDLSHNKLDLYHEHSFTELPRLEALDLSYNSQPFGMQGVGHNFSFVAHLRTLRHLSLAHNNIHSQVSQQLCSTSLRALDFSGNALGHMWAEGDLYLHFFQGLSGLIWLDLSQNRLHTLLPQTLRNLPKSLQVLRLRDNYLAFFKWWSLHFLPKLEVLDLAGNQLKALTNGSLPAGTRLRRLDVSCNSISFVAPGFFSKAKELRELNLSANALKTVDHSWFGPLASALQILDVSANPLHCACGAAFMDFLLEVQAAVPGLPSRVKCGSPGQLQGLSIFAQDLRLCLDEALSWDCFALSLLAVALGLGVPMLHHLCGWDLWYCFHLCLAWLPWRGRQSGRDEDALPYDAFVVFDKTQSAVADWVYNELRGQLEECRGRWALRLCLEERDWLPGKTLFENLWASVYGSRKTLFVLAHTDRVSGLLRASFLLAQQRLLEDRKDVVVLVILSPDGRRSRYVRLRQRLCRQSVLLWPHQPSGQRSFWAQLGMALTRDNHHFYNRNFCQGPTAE

[3] = Table 3 (nucleotides flanking 5′ CC, truncations)
[4] = Table 2 (5′ CC replaced by other dinucleotides)
[5] = Table 1 (length b / Spacer 18 variants)

In the case of “ACCTGGCGGGGAAGT (DNA, backbone and methylation of C not given here) [ODN 941]”, the “inhibitory for TLR8” value [1] is reported as “inhibitory”, the “Percent 2006 Activity” value [2, 3] is reported as 11% and the “inhibitory for TLR9” value [2] is reported as “inhibitory”.
With “CCCTGGCGGGGAAGT (DNA, backbone and methylation of C not given here) [ODN 942]” the “inhibitory for TLR8” value [1] was “inhibitory”, the “Percent 2006 Activity” value [2, 3] was 8% and the “inhibitory for TLR9” value [2] was “inhibitory”.
In the case of CCTCAAGCTTGAGGGG [SEQ ID NO:13], the “inhibitory for TLR8” value [1] is reported as “not for TLR8” and the “inhibitory for TLR9” value [2] is reported as “inhibitory”.
For “CTGGCGGGGAAGT (DNA, backbone and methylation of C not given here) [ODN 962]”, the “inhibition of hTLR8 (R-848 activity), in words” value ([1]; 50 μM R-848, increasing ODN (up to 5 μM), 16 h) was “specific inhibition” and the “Percent 2006 Activity” value [2, 3] was 122%.
“GCCTGGCGGGGAAGT (DNA, backbone and methylation of C not given here) [ODN 940]” was tested, and the “inhibitory for TLR8” value [1] was “inhibitory”, the “Percent 2006 Activity” value [2, 3] was 13% and the “inhibitory for TLR9” value [2] was “inhibitory”.
With “NNNNNNNNNNNNNN [ODN 605, reference compound]” the “inhibition of hTLR9 (CpG ODN 2006-mediated luciferase activity), in words” value [2] was “not”.
For “TAATGGCGGGGAAGT (DNA, backbone and methylation of C not given here) [ODN 959]”, the “Percent 2006 Activity” value [2, 4] was 92%.
With “TACTGGCGGGGAAGT (DNA, backbone and methylation of C not given here) [ODN 074]” the “Percent 2006 Activity” value [2, 4] was 132%.
“TAGTGGCGGGGAAGT (DNA, backbone and methylation of C not given here) [ODN 441]” was tested, and the “Percent 2006 Activity” value [2, 4] was 105%.
“TATTGGCGGGGAAGT (DNA, backbone and methylation of C not given here) [ODN 442]” was tested, and the “Percent 2006 Activity” value [2, 4] was 101%.
With “TCATGGCGGGGAAGT (DNA, backbone and methylation of C not given here) [ODN 073]” the “Percent 2006 Activity” value [2, 4] was 114%.
“TCCAGGCGGGGAAGT (DNA, backbone and methylation of C not given here) [ODN 157]” was tested, and the “Percent 2006 Activity” value [2, 3] was 14%.
With “TCCCGGCGGGGAAGT (DNA, backbone and methylation of C not given here) [ODN 155]” the “inhibitory for TLR8” value [1] was “inhibitory”, the “Percent 2006 Activity” value [2, 3] was 11% and the “inhibitory for TLR9” value [2] was “inhibitory”.
For “TCCTGGCGGGGAA (DNA, backbone and methylation of C not given here) [ODN 969]”, the “inhibition of hTLR9 (CpG ODN 2006-mediated luciferase activity), in words” value [2] was “inhibited”.
In the case of “TCCTGLGGGGAAGT (Spacer 18 hexaethyleneglycol spacer, as printed in the source, key not given here) [ODN 493]”, the “Percent 2006 Activity” value [2, 5] is reported as 54%.
With “TCCTGLLGGGGAAGT (two Spacer 18 hexaethyleneglycol spacers, as printed in the source, key not given here) [ODN 492]” the “Percent 2006 Activity” value [2, 5] was 67%.
“TCCTGTGTGTGTGTCGGGGAAGT (listed as DNA, chemistry not given here) [ODN 494]” was tested, and the “Percent 2006 Activity” value [2, 5] was 47%.
In the case of “TCCTGTGTGTGTGTGTCGGGGAAGT (listed as DNA, chemistry not given here) [ODN 495]”, the “Percent 2006 Activity” value [2, 5] is reported as 34%.
“TCGTGGCGGGGAAGT (DNA, backbone and methylation of C not given here) [ODN 435]” was tested, and the “Percent 2006 Activity” value [2, 4] was 77%.
For “TCTTGGCGGGGAAGT (DNA, backbone and methylation of C not given here) [ODN 437]”, the “Percent 2006 Activity” value [2, 4] was 89%.
In the case of “TGGTGGCGGGGAAGT (DNA, backbone and methylation of C not given here) [ODN 436]”, the “Percent 2006 Activity” value [2, 4] is reported as 90%.
“TTATGGCGGGGAAGT (DNA, backbone and methylation of C not given here) [ODN 439]” was tested, and the “Percent 2006 Activity” value [2, 4] was 91%.
In the case of “TTCTGGCGGGGAAGT (DNA, backbone and methylation of C not given here) [ODN 440]”, the “Percent 2006 Activity” value [2, 4] is reported as 90%.
With “TTGTGGCGGGGAAGT (DNA, backbone and methylation of C not given here) [ODN 438]” the “Percent 2006 Activity” value [2, 4] was 95%.
With “TTTTGGCGGGGAAGT (DNA, backbone and methylation of C not given here) [ODN 072]” the “Percent 2006 Activity” value [2, 4] was 121%.
